Data taken from patent publication EP4117701B1, “COMPOSITIONS FOR THE PREVENTION AND/OR TREATMENT OF BENIGN PROSTATIC HYPERTROPHY (BPH)” (IDI Integratori Dietetici Italiani S.r.l., priority 2020, dated 2021).

Key:
in vitro = type: cell-based; settings: human, lncap cells
Procedure: The cytotoxic activity of the considered plant extracts was evaluated in a human tumour prostate cell line (LNCaP). […] The treatment was prolonged for 6 hours, period of time corresponding to the overall duration of the pre-treatment and of post-treatment thereto the cells were subjected for the subsequent evaluation of the anti-inflammatory activity. At the end of the incubation period, the vitality of the prostate cells was evaluated by using the assay MTS, based upon the reduction of the compound MTS tetrazolium by the vital cells to generate a form of coloured formazan, which can be quantified by measuring the absorbance at 490-500 nm thereof.

[1] = test system: human prostate cell line (LNCaP); assay: Cytotoxicity of plant extracts, MTS assay, 24 hours; type: cell-based; settings: extracts 0 to 1000 µg/mL (TEUPOL10 0 to 1500 µg/mL), Dutasteride 0 to 7.93 µg/mL
Procedure: The cytotoxic activity of considered plant extracts was evaluated in a human prostate cell line (LNCaP). The prostate cells were treated with growing concentrations of the plant extracts (from 0 to 1000 µg/mL for the extract of B. Serrata and S. Repens, from 0 to 1500 µg/mL for TEUPOL10) and of the positive control Dutasteride (from 0 µg/mL to 7.93 µg/mL). The treatment was prolonged for 24 hours, time corresponding to the overall duration of the experiments related to PSA and to 5-α-reductase. At the end of the incubation period, the vitality of the prostate cells was evaluated by using the assay MTS, based upon the reduction of the compound MTS tetrazolium by the vital cells to generate a coloured form, which can be quantified by measuring the absorbance thereof at 490-500 nm.

SMILES | MCC at 6 h (in vitro) | adverse effect on vitality of the prostate cells [1]
O=C(O)Cc1ccccc1Nc1c(Cl)cccc1Cl [Diclofenac] | 80 µg/mL | –
C[C@]12C=CC(=O)N[C@@H]1CC[C@@H]1[C@@H]2CC[C@]2(C)[C@@H](C(=O)Nc3cc(C(F)(F)F)ccc3C(F)(F)F)CC[C@@H]12 [Dutasteride] | – | No adverse effect
